Results from publication PMC11350758, “Development of Xanthoangelol-Derived Compounds with Membrane-Disrupting Effects against Gram-Positive Bacteria” (Antibiotics, 2024).
≈ marks a conversion by molar mass, not a printed value.

Columns and labels:
Assay type in all cases: cell-based
[1] = system: Enterococcus faecalis ATCC51299, vancomycin-resistant strain; test: MIC, broth microdilution; settings: Enterococcus faecalis ATCC51299, vancomycin-resistant; read-out: MIC E. f. 51299
How it was run: (§1)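 Broth microdilution per CLSI: 2-fold serial compound dilutions in TSB broth, mixed with an equal volume of bacterial suspension at 10^6 CFU/mL. Incubated 37 °C for 24 h; experiments repeated three times.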

[2] = system: Enterococcus faecium ATCC51559, vancomycin-resistant strain; test: MIC, broth microdilution; settings: Enterococcus faecium ATCC51559, vancomycin-resistant; read-out: MIC E. f. 51559
How it was run: as §1

[3] = In vitro cytotoxicity evaluation; settings: human, LO2 cells
Experimental: A key component in the development of antimicrobial agents for clinical application is the assessment of their potential toxicity to mammalian cells. To assess the cytotoxic impact, compound 9h was chosen to undergo in vitro testing for its cytotoxic effects on LO2 cells.

S. aureus ATCC43300 [4] = test: Bactericidal time-kill assay; settings: 8× MIC, 16 μg/mL
Experimental: Natural AMPs have rapid bactericidal properties, and in order to examine whether active compound 9h have similar rapid bactericidal properties, the time-kill kinetics of 9h were carried out to test the bactericidal action against S. aureus ATCC4330 at four different concentrations.
S. aureus ATCC43300 was cultured at 37 °C for 6 h and diluted to 1×10^6 CFU/mL. […] At each time point, the bacterial suspension (20 μL) was diluted in PBS, and the number of bacterial colonies was measured. All biological experiments were repeated three times.

S. aureus ATCC43300 [5] = test: Resistance development assay (serial passage); settings: serial passage at 1/2 MIC for 20 days
Experimental: The rapid increase in bacterial resistance to antibiotics is a major challenge in clinical treatment, and in order to assess the drug resistance development for compound 9h, we performed a drug resistance assay against S. aureus ATCC43300. Norfloxacin was selected as the positive control. The S. aureus cells were incubated with sub-MIC (1/2 MIC) concentration of compound 9h and were serially passaged for a duration of 20 days.
Resistance was defined as a more than 4-fold increase in the tested compound in MIC when compared to the beginning value. Briefly, S. aureus ATCC43300 was cultured (37 °C, 200 rpm) in MHB broth for 5 h and diluted to 1 × 10^6 CFU/mL. Then, the bacteria were cultured with compound 9h at a sub-MIC concentration (1/2 MIC) for 18 h. The MICs were determined according to this method for consecutive 20 days. All biological experiments were repeated three times.

S. aureus ATCC43300 [6] = test: Cytoplasmic membrane depolarization assay, DiSC3(5); settings: 16 μg/mL, at 20 min
Experimental: To explore the antibacterial mechanism of compound 9h, a cytoplasmic membrane depolarization assay was performed against S. aureus ATCC43300 using 3,3′-dipropylthiadicarbocyanine iodide (DiSC3(5)) assay. In general, DiSC3(5) could penetrate the intact cell membranes and was quenched when accumulated inside the bacterial cells. Once the cell membrane was destroyed, DiSC3(5) was released from the cell membrane, leading to a significant increase in fluorescence intensity. […] Moreover, the fluorescence intensity in S. aureus increased in a dose-dependent manner with increasing concentrations of 9h.
Mid-log S. aureus ATCC43300 was collected and then washed with PBS three times. Bacterial suspension (1.0 × 10^8 CFU/mL, 150 μL) was added to a black 96-well plate, and then fluorescent dye DiSC3(5) (10 μM, 50 μL) was pipetted into each well of plates and preincubated in the dark for 30 min. After the incubation, the fluorescence intensity was measured every minute for 6 min using a microplate reader (SpectraMax i3x, Molecular Devices, Sunnyvale, CA, USA) (λex/λem = 622 nm/670 nm). […] All biological experiments were repeated three times.

S. aureus ATCC43300 [7] = test: DNA leakage study; settings: 16 μg/mL
Experimental: The destruction of bacterial cell membranes usually causes the leakage of macromolecules, including DNA and proteins. To investigate the effect of the compound 9h on the leakage of cytoplasmic contents, we performed DNA and protein leakage assays against S. aureus ATCC43300. The degree of damage to the bacterial cell membrane could be reflected by the concentrations of DNA and protein. The non-membrane-targeted antibiotic ciprofloxacin, membrane-targeted peptide melittin, and PBS were used as controls. […] A similar result were also observed in the leakage of protein with S. aureus (Figure 8C).
Mid-log S. aureus ATCC43300 was collected and resuspended in PBS (1.0 × 10^8 CFU/mL). […] The concentration of the protein was determined according to the method of the BCA assay kit (Thermo Fisher Scientific, Waltham, MA, USA), and the concentration of DNA in the supernatant was tested by a micro-spectrophotometer. All biological experiments were repeated three times.

[8] = system: Gram-positive strains tested; test: MIC, summary over the Gram-positive strains tested; settings: read-out: MICs against the Gram-positive strains tested, range over the Gram-positive panel
Experimental: All target derivatives were assessed for their in vitro antibacterial activities using a broth microdilution assay to test their minimum inhibitory concentrations (MICs) against six Gram-positive strains (S. aureus ATCC31007, S. aureus ATCC25923, S. aureus ATCC43300, E. faecalis ATCC29212, B. subtilis ATCC9372, and S. epidermidis ATCC12228) and four Gram-negative strains (A. baumannii ATCC19606, K. pneumonia ATCC10031, E. coli ATCC25922, and P. aeruginosa ATCC27853). These compounds were also evaluated for their hemolytic activities and membrane selectivity by determining their HC50 (the concentration required to lyse 50% of red blood cells) and SI (HC50/MICs) values, respectively, and vancomycin was used as the positive drug.
MICs of the derivatives were determined by the micro broth dilution method according to the American Clinical and Laboratory Standards Institute (CLSI) standards. Briefly, 2-fold serial dilutions of target compounds were prepared in 96-well plates containing TSB broth. An equal volume of bacterial suspension (10^6 CFU/mL) was then pipetted into each well, and the mixture was incubated at 37 °C for 24 h. […] All biological experiments were repeated three times.

With `CC(=O)c1c(OCCCNCCCN2CCN(C)CC2)c2c(c3c1OC(C)(CCC=C(C)C)C=C3)OC(C)(CCC=C(C)C)C=C2` (centres unmarked) [Compound 9h, 1-(2,8-Dimethyl-2,8-bis(4-methylpent-3-en-1-yl)-5-(3-((3-(4-methylpiperazin-1-yl)propyl)amino)propoxy)-2H,8H-pyrano [2,3-f]chromen-6-yl)ethan-1-one] the MIC [1] was 8 mg/L (≈ 12.6 µM), the MIC [2] was 4 mg/L (≈ 6.31 µM) and the IC50 [3] was 55 mg/L (≈ 86.8 µM). For the same compound, the viability at 2 μg/mL ([3]; 2 μg/mL, read-out: Cell Viability (%)) was 88.8%, the viability at 4 μg/mL ([3]; 4 μg/mL, read-out: Cell Viability (%)) was 88.6% and the viability at 8 μg/mL ([3]; 8 μg/mL, read-out: Cell Viability (%)) was 82.6%. For the same compound, the viability at 16 μg/mL ([3]; 16 μg/mL, read-out: Cell Viability (%)) was 78.4%, the viability at 32 μg/mL ([3]; 32 μg/mL, read-out: Cell Viability (%)) was 71.4% and the viability at 64 μg/mL ([3]; 64 μg/mL, read-out: Cell Viability (%)) was 58.1%. For the same compound, the viability at 128 μg/mL ([3]; 128 μg/mL, read-out: Cell Viability (%)) was 19.7%, the “time to complete bacterial killing” value (S. aureus ATCC43300 [4]) was 4 h and the “killing of S. aureus” value (S. aureus ATCC43300 [4]; within 1 h) was no less than 99.9%. The “colony-forming unit (CFU) reduction” value (S. aureus ATCC43300 [4]; within 1 h, compared with the control) was 5.95 log, the “fold increase in MIC” value (S. aureus ATCC43300 [5]) was no more than 4 fold and the “increase of DiSC3(5) fluorescence intensity vs blank control” value (S. aureus ATCC43300 [6]) was “about 5 fold”. The “concentration of DNA excreted vs blank control” value (S. aureus ATCC43300 [7]) was “approximately 5.5 fold” and the MIC [8] was 0.5 to 8 mg/L (≈ 0.789 to 12.6 µM).
